According to patent US20110190503A1, “Thiazolopyridin-2-yloxy-phenyl and thiazolopyrazin-2-yloxy-phenyl amines as modulators of leukotriene A4 hydrolase” (Janssen Pharmaceutical NV, priority 2008, published 2011):
Structures can show the parent of a compound that is named as a salt. Where two headings read alike, the source gives them in different places.

Columns and labels:
[1] = tested on: LTB4 production by calcium ionophore-stimulated murine blood; assay: LTB4 production by calcium ionophore-stimulated murine blood for LTA4H inhibitor activity; format: cell-based, CD-1 mice
In short: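 Heparinized CD-1 mouse blood pre-incubated with compound 15 min at 37° C, then stimulated with calcium ionophore A23187 (7 μg/mL final) for 30 min. LTB4 in supernatant measured by enzyme immunoassay; values are single or averaged determinations, with SD for n≥3.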

[2] = target: T1, recombinant human LTA4 hydrolase (rhLTA4H) (Homo sapiens, UniProt P09960); assay: Recombinant human LTA4 hydrolase assay for LTA4 hydrolase inhibitor activity; format: biochemical; conditions: rhLTA4H, LTA4 substrate, LTB4 by immunoassay; single determination or average; read-out: IC50
T1 construct: made in house; host or cells: Spodoptera frugiperda (Sf-9) cells, recombinant baculovirus (pFastBac1)
T1 sequence (P09960 1-611): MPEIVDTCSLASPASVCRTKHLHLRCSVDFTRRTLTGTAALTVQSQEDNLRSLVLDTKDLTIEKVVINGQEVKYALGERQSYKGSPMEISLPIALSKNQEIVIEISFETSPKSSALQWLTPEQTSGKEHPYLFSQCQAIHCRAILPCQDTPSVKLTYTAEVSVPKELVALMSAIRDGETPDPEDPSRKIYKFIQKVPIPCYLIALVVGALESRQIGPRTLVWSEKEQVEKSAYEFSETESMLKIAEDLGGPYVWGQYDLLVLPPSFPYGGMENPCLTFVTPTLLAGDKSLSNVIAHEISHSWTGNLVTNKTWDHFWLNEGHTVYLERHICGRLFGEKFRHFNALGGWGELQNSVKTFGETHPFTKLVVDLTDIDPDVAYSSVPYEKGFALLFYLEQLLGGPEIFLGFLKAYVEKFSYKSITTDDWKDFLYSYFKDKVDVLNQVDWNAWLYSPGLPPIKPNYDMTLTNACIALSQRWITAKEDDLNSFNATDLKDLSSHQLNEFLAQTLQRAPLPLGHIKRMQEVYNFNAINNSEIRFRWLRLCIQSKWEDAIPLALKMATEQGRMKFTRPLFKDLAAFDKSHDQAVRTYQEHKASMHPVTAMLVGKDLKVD
In short: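 Recombinant human LTA4H from baculovirus-infected Sf-9 cells (10 ng) pre-incubated 10 min at rt with compound (10% DMSO in dilutions), then reacted with free-acid LTA4 for 30 min at rt. LTB4 measured by ELISA; IC50 by nonlinear regression. Values are single determinations or averages.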

[3] = Mus musculus, murine blood diluted 1 in 15, calcium ionophore A23187, LTB4 by immunoassay, read-out: IC50

IC50 [1, 3] [µM]	IC50 [2] [µM]	IC50 ([1]; murine blood diluted 1 in 15, calcium ionophore A23187, LTB4 by immunoassay, read-out: IC50) [µM]	SMILES	IC50 ([1]; Mus musculus) [µM]
0.005	0.023		CC(=O)N1C[C@@H]2C[C@H]1CN2Cc1ccc(Oc2nc3ncc(F)cc3s2)cc1 [Example 128, 2-(4-{[(1S,4S)-5-Acetyl-2,5-diazabicyclo[2.2.1]hept-2-yl]methyl}phenoxy)-6-fluoro[1,3]thiazolo[4,5-b]pyridine]	
0.11	0.0025		CCOC(=O)C1CCN(Cc2ccc(Oc3nc4ncccc4s3)cc2)CC1 [Example 130, Ethyl 1-[4-([1,3]thiazolo[4,5-b]pyridin-2-yloxy)benzyl]piperidine-4-carboxylate]	
1.07	0.0078		O=C(O)C1CCN(Cc2ccc(Oc3nc4ncccc4s3)cc2)CC1 [Example 131, 1-[4-([1,3]Thiazolo[4,5-b]pyridin-2-yloxy)benzyl]piperidine-4-carboxylic acid]	
0.088	0.072		COc1ccccc1N1CCN(CCOc2ccc(Oc3nc4ncccc4s3)cc2)CC1 [Example 135, 2-(4-{2-[4-(2-Methoxyphenyl)piperazin-1-yl]ethoxy}phenoxy)[1,3]thiazolo[4,5-b]pyridine]	
0.0056	0.008		OC1CCN(Cc2ccc(Oc3nc4ncccc4s3)cc2)CC1 [Example 137, 1-[4-([1,3]Thiazolo[4,5-b]pyridin-2-yloxy)benzyl]piperidin-4-ol]	
0.45	0.097		Cc1ccnc2nc(Oc3ccc(OCCN4CC5CN(C(=O)C6CCC6)CC5C4)cc3)sc12 (stereo not shown) [Example 146, 2-(4-{2-[5-(Cyclobutylcarbonyl)hexahydropyrrolo[3,4-c]pyrrol-2(1H)-yl]ethoxy}phenoxy)-7-methyl[1,3]thiazolo[4,5-b]pyridine]	
0.33	0.049		CC(=O)NC1CCN(CCOc2ccc(Oc3nc4ncc(C)cc4s3)cc2)CC1 [Example 154, N-[1-(2-{4-[(6-Methyl[1,3]thiazolo[4,5-b]pyridin-2-yl)oxy]phenoxy}ethyl)piperidin-4-yl]acetamide]	
0.18	0.099		COCCN(C)CCOc1ccc(Oc2nc3nccc(C)c3s2)cc1 [Example 160, N-Methyl-2-(methyloxy)-N-[2-({4-[(7-methyl[1,3]thiazolo[4,5-b]pyridin-2-yl)oxy]phenyl}oxy)ethyl]ethanamine]	
0.031	0.006		CS(=O)(=O)NC1CCN(CCOc2ccc(Oc3nc4ncccc4s3)cc2)CC1 [Example 163, N-[1-(2-{[4-([1,3]Thiazolo[4,5-b]pyridin-2-yloxy)phenyl]oxy}ethyl)piperidin-4-yl]methanesulfonamide]	
0.11	0.018		c1cnc(OC2CCN(Cc3ccc(Oc4nc5nccnc5s4)cc3)CC2)nc1 [Example 184, 2-[(4-{[4-(Pyrimidin-2-yloxy)piperidin-1-yl]methyl}phenyl)oxy][1,3]thiazolo[4,5-b]pyrazine]	
	0.007	0.85	CC(=O)N1C2CCC1CN(Cc1ccc(Oc3nc4ncccc4s3)cc1)C2 [Example 185, meso-2-[(4-{[8-Acetyl-3,8-diazabicyclo[3.2.1]oct-3-yl]methyl}phenyl)oxy][1,3]thiazolo[4,5-b]pyridine]	
1.3	0.071		Cc1ccc(SC2CCN(CCOc3ccc(Oc4nc5ncccc5s4)cc3)CC2)cc1 [Example 255, 2-[4-(2-{4-[(4-Methylphenyl)sulfanyl]piperidin-1-yl}ethoxy)phenoxy][1,3]thiazolo[4,5-b]pyridine]	
0.178	0.087		c1cnc2nc(Oc3ccc(CN4CCC(N5CCCCC5)CC4)cc3)sc2c1 [Example 256, 1′-[4-([1,3]Thiazolo[4,5-b]pyridin-2-yloxy)benzyl]-1,4′-bipiperidine]	
0.043	0.008		c1ccc(OC2CCN(Cc3ccc(Oc4nc5ncccc5s4)cc3)CC2)cc1 [Example 260, 2-{4-[(4-Phenoxypiperidin-1-yl)methyl]phenoxy}[1,3]thiazolo[4,5-b]pyridine]	
0.038	0.007		c1ccc(OC2CCN(Cc3ccc(Oc4nc5ncccc5s4)cc3)CC2)nc1 [Example 261, 2-(4-{[4-(Pyridin-2-yloxy)piperidin-1-yl]methyl}phenoxy)[1,3]thiazolo[4,5-b]pyridine]	
0.097	0.003		c1cnc2nc(Oc3ccc(CN4CCC(Oc5ccncc5)CC4)cc3)sc2c1 [Example 262, 2-(4-{[4-(Pyridin-4-yloxy)piperidin-1-yl]methyl}phenoxy)[1,3]thiazolo[4,5-b]pyridine]	
0.462	0.004		c1ccc(SC2CCN(Cc3ccc(Oc4nc5ncccc5s4)cc3)CC2)nc1 [Example 263, 2-(4-{[4-(Pyridin-2-ylsulfanyl)piperidin-1-yl]methyl}phenoxy)[1,3]thiazolo[4,5-b]pyridine]	
0.159	0.03		c1ccc(SC2CCN(Cc3ccc(Oc4nc5ncccc5s4)cc3)CC2)cc1 [Example 264, 2-(4-{[4-(Phenylsulfanyl)piperidin-1-yl]methyl}phenoxy)[1,3]thiazolo[4,5-b]pyridine]	

SMILES	IC50 [1, 3] [µM]	IC50 [2] [µM]	IC50 ([1]; murine blood diluted 1 in 15, calcium ionophore A23187, LTB4 by immunoassay, read-out: IC50) [µM]	IC50 ([1]; Mus musculus) [µM]
CC(=O)N[C@H]1C[C@H]2CC[C@@H](C1)N2Cc1ccc(Oc2nc3cnccc3s2)cc1 [Example 134, meso-N-{(3-endo)-8-[4-([1,3]Thiazolo[4,5-c]pyridin-2-yloxy)benzyl]-8-azabicyclo[3.2.1]oct-3-yl}acetamide]	0.18	0.038		
CC(=O)N1C[C@H]2CC[C@@H](C1)N2CCOc1ccc(Oc2nc3ncccc3s2)cc1 [Example 141, meso-2-{4-[2-(3-Acetyl-3,8-diazabicyclo[3.2.1]oct-8-yl)ethoxy]phenoxy}[1,3]thiazolo[4,5-b]pyridine]	0.014	0.002		
NC(=O)N[C@@H]1C[C@H]2CC[C@@H](C1)N2CCOc1ccc(Oc2nc3ncccc3s2)cc1 [Example 142, meso-1-[(3-exo)-8-{2-[4-([1,3]Thiazolo[4,5-b]pyridin-2-yloxy)phenoxy]ethyl}-8-azabicyclo[3.2.1]oct-3-yl]urea hydrochloride]		0.008		1600
CC(=O)N[C@H]1C[C@H]2CC[C@@H](C1)N2CCOc1ccc(Oc2nc3nccnc3s2)cc1 [Example 148, meso-N-[(3-endo)-8-{2-[4-([1,3]Thiazolo[4,5-b]pyrazin-2-yloxy)phenoxy]ethyl}-8-azabicyclo[3.2.1]oct-3-yl]acetamide]	0.036	0.043		
NC(=O)N1[C@@H]2CC[C@H]1CN(CCOc1ccc(Oc3nc4ncccc4s3)cc1)C2 [Example 149, meso-3-{2-[4-([1,3]Thiazolo[4,5-b]pyridin-2-yloxy)phenoxy]ethyl}-3,8-diazabicyclo[3.2.1]octane-8-carboxamide]	0.18	0.063		
CC(=O)N[C@@H]1C[C@H]2CC[C@@H](C1)N2CCOc1ccc(Oc2nc3cccnc3s2)cc1 [Example 153, meso-N-[(3-exo)-8-{2-[4-([1,3]Thiazolo[5,4-b]pyridin-2-yloxy)phenoxy]ethyl}-8-azabicyclo[3.2.1]oct-3-yl]acetamide]	0.36	0.035		
CC(=O)N1[C@@H]2CC[C@H]1C[C@@H](NCCOc1ccc(Oc3nc4ncccc4s3)cc1)C2 [Example 159, meso-(3-endo)-8-acetyl-N-{2-[4-([1,3]thiazolo[4,5-b]pyridin-2-yloxy)phenoxy]ethyl}-8-azabicyclo[3.2.1]octan-3-amine]	0.082	0.009		
CC(=O)N1[C@@H]2CC[C@H]1CN(CCOc1ccc(Oc3nc4ncccc4s3)cc1)C2 [Example 162, meso-2-{[4-({2-[8-Acetyl-3,8-diazabicyclo[3.2.1]oct-3-yl]ethyl}oxy)phenyl]oxy}[1,3]thiazolo[4,5-b]pyridine]	0.012	0.003		
CC(=O)N1[C@@H]2CC[C@H]1C[C@@H](NCc1ccc(Oc3nc4ncccc4s3)cc1)C2 [Example 169, meso-(3-endo)-8-Acetyl-N-{[4-([1,3]thiazolo[4,5-b]pyridin-2-yloxy)phenyl]methyl}-8-azabicyclo[3.2.1]octan-3-amine]	0.054	0.018		
CCCCN(CC)CCc1ccc(Oc2nc3ncc(C)cc3s2)cc1 [Example 178, N-Ethyl-N-(2-{4-[(6-methyl[1,3]thiazolo[4,5-b]pyridin-2-yl)oxy]phenyl}ethyl)butan-1-amine]	0.26	0.011		
CS(=O)(=O)N[C@H]1C[C@H]2CC[C@@H](C1)N2Cc1ccc(Oc2nc3ncccc3s2)cc1 [Example 182, meso-N-[(3-endo)-8-{[4-([1,3]Thiazolo[4,5-b]pyridin-2-yloxy)phenyl]methyl}-8-azabicyclo[3.2.1]oct-3-yl]methanesulfonamide]	0.024	0.0019		
